The results in this text go back to ChEMBL document CHEMBL1201862, “PubChem BioAssay data set” (2004).

Holding throughout (test): growth of human tumour cells (NCI), 48 h
Assay [1] relates to HT-29.
Assay [2] has as its system LOX IMVI.
The subject of assay [3] is MDA-MB-231.
The subject of assay [4] is SNB-19.
For assay [5], the system named is HOP-92.
Assay [6] relates to SK-MEL-28.
The test system of assay [7] is U-251.
Assay [8] concerns NCI-H226.
The test system of assay [9] is UACC-257.
Assay [10] has as its system EKVX.
Assay [11] relates to NCI-H23.
Assay [12] concerns PC-3.
The test system of assay [13] is RXF 393.
Assay [14] deals with MCF7.
The test system of assay [15] is SW-620.
Assay [16] relates to T47D.
The test system of assay [17] is SF-539.
The test system of assay [18] is SK-OV-3.
For assay [19], the system named is NCI/ADR-RES.
Assay [20] relates to COLO 205.

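These data come from cells grown in 96-well plates and exposed to compound for 48 hours at five concentrations. Here, GI50 denotes the concentration required for 50% inhibition of growth.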 Calls of active or inactive are those of the source. Rule as the data show it: active = GI50 up to about 1.1 µM and inactive = higher.

On to `O=C(O)c1ccc(C2SCc3nc4ccccc4n32)cc1` (centres undefined), for which the GI50 in assay [1] was > 100 µM (inactive); in [2], > 10 µM (inactive); in [3], > 100 µM (inactive); in [4] it was > 100 µM (inactive); in assay [5], > 100 µM (inactive); in assay [6] it was > 100 µM (inactive). Also, the GI50 in assay [7], in assay [8], in assay [9], in assay [10], in assay [11] and in [12] was > 100 µM (inactive) each time. In addition, the GI50 in assay [13] is > 100 µM (inactive); in [14], > 100 µM (inactive); in [15], > 100 µM (inactive); in assay [16], > 10 µM (inactive); in assay [17] it was > 100 µM (inactive).
In the case of `O=C(O)C12CCC(CC1=O)C2` (centres undefined), the GI50 in [1], in [2], in [4], in [5], in assay [18] and in [19] was > 100 µM (inactive) throughout. For the same compound, the GI50 in [20], in assay [6], in [7], in assay [8], in [9] and in [10] was > 100 µM (inactive) in each case. The GI50 in assay [11], in [12], in assay [14], in [15] and in assay [16] was > 100 µM (inactive) in each case.
Take `Cc1nc2c(Cl)cc(Cl)cc2c2c1CCO2`: the GI50 is > 100 µM (inactive) in assay [1]; > 100 µM (inactive) in assay [2]; > 100 µM (inactive) in assay [3]; > 100 µM (inactive) in assay [4]; 73.1 µM (inactive) in assay [5]; > 100 µM (inactive) in assay [19]. Further, the GI50 was > 100 µM (inactive) in assay [20]; > 100 µM (inactive) in assay [6]; > 100 µM (inactive) in [7]; > 100 µM (inactive) in assay [8]; > 100 µM (inactive) in assay [9]; 54 µM (inactive) in assay [10]. The GI50 is > 100 µM (inactive) in assay [11]; 87.3 µM (inactive) in [13]; > 100 µM (inactive) in [14]; > 100 µM (inactive) in assay [15]; > 100 µM (inactive) in assay [16]; > 100 µM (inactive) in [17].
Take `CC(=O)c1ccc2c(c1)N(CCCN1CCN(CCO)CC1)c1ccccc1C2`: the GI50 in [1] was 10 µM (inactive); in assay [2] it was 15.2 µM (inactive); in assay [3], 13.2 µM (inactive); in assay [4], 18.9 µM (inactive); in assay [5] it was 12.9 µM (inactive); in assay [18], 16.3 µM (inactive). The GI50 was 13.9 µM (inactive) in assay [19]; 15.1 µM (inactive) in [20]; 11.2 µM (inactive) in [6]; 15.8 µM (inactive) in assay [7]; 14.6 µM (inactive) in assay [8]; 5.78 µM (inactive) in assay [9]. Also, the GI50 was 17.9 µM (inactive) in assay [10]; 15.8 µM (inactive) in assay [11]; 14.3 µM (inactive) in assay [12]; 15.4 µM (inactive) in assay [13]; 14.5 µM (inactive) in assay [15]; 12.3 µM (inactive) in assay [16]. Moreover, the GI50 in assay [17] is 16.7 µM (inactive).
As to `COC(=O)c1ccccc1/C=C1\Cc2cc(C)cc(C)c2C1=O`, the GI50 in assay [1] was > 100 µM (inactive); in assay [2] it was > 100 µM (inactive); in assay [3], > 100 µM (inactive); in [4], 72.4 µM (inactive); in [6], > 100 µM (inactive); in assay [7], > 100 µM (inactive). Also, the GI50 in [8], in assay [9], in assay [10], in assay [11], in assay [12] and in assay [13] was > 100 µM (inactive) throughout. Besides, the GI50 in assay [14], in assay [15], in assay [16] and in assay [17] was > 100 µM (inactive) throughout.
`CCN(CC)/[N+]([O-])=N/OS(=O)(=O)N(C)C`: the GI50 in assay [1], in assay [2], in assay [3], in [4], in assay [5] and in assay [18] was > 100 µM (inactive) throughout. Further, the GI50 in assay [19], in [20], in assay [6], in [7], in assay [8] and in assay [9] was > 100 µM (inactive) in each case. In addition, the GI50 in [10], in assay [11], in assay [13], in [14], in assay [15] and in [16] was > 100 µM (inactive) each time. The GI50 in assay [17] was > 100 µM (inactive).
For `N#CC(C#N)=c1c2ccccc2c(=C(C#N)C#N)c2ccccc12`, the GI50 is 18.6 µM (inactive) in assay [1]; 17.8 µM (inactive) in assay [2]; 16.4 µM (inactive) in assay [3]; 14.6 µM (inactive) in [4]; 32.9 µM (inactive) in [5]; 25.1 µM (inactive) in assay [18]. Moreover, the GI50 in [19] was 25.6 µM (inactive); in [20] it was 21.2 µM (inactive); in [6], 17.7 µM (inactive); in assay [7] it was 19.4 µM (inactive); in assay [8] it was 17.7 µM (inactive); in [9], 23.1 µM (inactive). The GI50 in [11] is 19.6 µM (inactive); in assay [12], 16.1 µM (inactive); in assay [14], 5.61 µM (inactive); in assay [15] it was 24.8 µM (inactive).
In the case of `O=C1OC(c2ccccc2)=N/C1=C\c1ccc(Br)cc1`, the GI50 in [1], in assay [2], in [3], in assay [4], in assay [5] and in assay [18] was > 100 µM (inactive) in each case. Moreover, the GI50 in assay [20], in [6], in assay [7], in assay [8], in assay [9] and in assay [10] was > 100 µM (inactive) in each case. In addition, the GI50 in assay [11], in assay [12], in [13], in assay [14], in [15] and in assay [16] was > 100 µM (inactive) throughout. Moreover, in assay [17], the GI50 is > 100 µM (inactive).
Regarding `O=C(Nc1ccc(Cl)cc1)[C-](C(=O)c1ccc(Br)cc1)[n+]1cccc(-c2ccc(Cl)cc2)n1`, the GI50 in assay [2] is 2.97 µM (inactive); in assay [3] it was 31.2 µM (inactive); in assay [4] it was 8.41 µM (inactive); in assay [5], 3.61 µM (inactive); in assay [18], 6.35 µM (inactive); in [19], 3.53 µM (inactive). The GI50 was 4.15 µM (inactive) in assay [20]; 8.77 µM (inactive) in assay [6]; 3.87 µM (inactive) in [7]; 3.88 µM (inactive) in [9]; 3.49 µM (inactive) in [10]; 2.37 µM (inactive) in assay [11]. Also, the GI50 in [12] is 3.95 µM (inactive); in assay [14], 1.41 µM (inactive); in [15], 4.3 µM (inactive); in assay [16] it was 1.64 µM (inactive).
With `Cc1ccc(C)n2c1nc1ccccc12`, the GI50 in [1] was 31.9 µM (inactive); in assay [4], > 100 µM (inactive); in assay [5], > 100 µM (inactive); in [18], > 100 µM (inactive); in assay [19], > 100 µM (inactive); in assay [20], > 100 µM (inactive). The GI50 was > 100 µM (inactive) in assay [6]; > 100 µM (inactive) in assay [7]; > 100 µM (inactive) in assay [8]; > 100 µM (inactive) in [9]; 62.7 µM (inactive) in [10]; > 100 µM (inactive) in assay [11]. For the same compound, the GI50 in [12] was > 100 µM (inactive); in assay [13] it was 96.4 µM (inactive); in [14] it was > 100 µM (inactive); in [15] it was > 100 µM (inactive); in [16], > 100 µM (inactive); in [17] it was > 100 µM (inactive).
Regarding `C[C@]12CC[C@H]3[C@@H](CC[C@]4(O)C[C@@H](O)CC[C@]34C=O)[C@@]1(O)CC[C@@H]2C1=CC(=O)OC1` [STROPHANTHIDIN], the GI50 in assay [1] is 0.406 µM (active); in [2], 0.453 µM (active); in [3], 2.65 µM (inactive); in [4], 1.58 µM (inactive); in assay [5] it was 1.25 µM (inactive); in assay [18] it was 0.568 µM (active). Moreover, the GI50 in assay [19] was 0.403 µM (active); in [20], 1.36 µM (inactive); in [6], 1.73 µM (inactive); in [7], 0.698 µM (active); in assay [8] it was 1.23 µM (inactive); in assay [9], 0.766 µM (active). The GI50 in assay [10] was 0.361 µM (active); in assay [11], 0.265 µM (active); in assay [12], 0.453 µM (active); in assay [13], 0.274 µM (active); in assay [15], 0.528 µM (active); in assay [16], 0.697 µM (active). Moreover, the GI50 in assay [17] is 0.294 µM (active).
